According to ChEMBL document CHEMBL3217747, “Discovery and pharmacological characterization of a selective delta opiate receptor antagonist (CP-646,777)” (Medchemcomm, 2011):
pIC50, pKi: −log10 of the molar value.

Experiments:
[1] = biological target: Kappa-type opioid receptor (Homo sapiens, UniProt P41145); test: Displacement of [3H]diprenorphine from human kappa opioid receptor expressed in CHO cells by liquid scintillation counting analysis; assay type: cell-based
[2] = system: MDCK; test: Efflux ratio of apparent permeability across […] in MDCK cells expressing human P-gp; assay type: ADME, cell-based, Canis lupus familiaris; conditions: dog
[3] = biological target: Mu-type opioid receptor (Homo sapiens, UniProt P35372); test: Displacement of [3H]diprenorphine from human mu opioid receptor expressed in CHO cells by liquid scintillation counting analysis; assay type: cell-based
Chain of Mu-type opioid receptor (P35372 whole entry): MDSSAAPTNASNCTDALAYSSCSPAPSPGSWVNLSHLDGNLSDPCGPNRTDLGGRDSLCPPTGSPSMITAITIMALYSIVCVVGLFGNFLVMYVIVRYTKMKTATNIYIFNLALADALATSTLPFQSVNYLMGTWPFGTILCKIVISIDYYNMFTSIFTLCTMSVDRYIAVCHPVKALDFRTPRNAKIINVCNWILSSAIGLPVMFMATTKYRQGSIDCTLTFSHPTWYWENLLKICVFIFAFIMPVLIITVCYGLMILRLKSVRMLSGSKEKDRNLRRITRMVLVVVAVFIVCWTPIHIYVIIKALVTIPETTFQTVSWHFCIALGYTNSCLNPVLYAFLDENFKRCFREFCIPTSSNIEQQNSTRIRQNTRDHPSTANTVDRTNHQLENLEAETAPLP

[4] = In vitro clearance in human liver microsomes; assay type: ADME; conditions: read-out: CLH
[5] = biological target: T1, Delta-type opioid receptor (Homo sapiens, UniProt P41143); test: Displacement of [3H]diprenorphine from human delta opioid receptor expressed in CHO cells by liquid scintillation counting analysis; assay type: cell-based
T1 sequence (P41143 whole entry): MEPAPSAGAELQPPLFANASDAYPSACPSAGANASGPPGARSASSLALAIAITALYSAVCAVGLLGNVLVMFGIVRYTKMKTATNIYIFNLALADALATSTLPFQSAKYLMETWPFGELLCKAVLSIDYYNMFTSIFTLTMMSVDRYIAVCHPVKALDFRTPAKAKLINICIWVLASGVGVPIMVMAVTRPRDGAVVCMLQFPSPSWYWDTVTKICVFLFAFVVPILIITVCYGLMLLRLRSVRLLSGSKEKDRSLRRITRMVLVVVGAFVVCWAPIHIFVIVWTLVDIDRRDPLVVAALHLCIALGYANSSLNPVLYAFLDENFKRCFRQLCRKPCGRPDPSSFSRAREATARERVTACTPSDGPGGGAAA

[6] = biological target: T1, Delta-type opioid receptor; test: Antagonist activity at delta opioid receptor (unknown origin) assessed as [35S]-GTPgammaS binding by liquid scintillation counting analysis; assay type: functional
[7] = system: Cerebrospinal fluid; test: Drug uptake in rat cerebrospinal fluid at 32 mg/kg, sc; assay type: ADME, organism-based; set-up: dose 32 mg/kg, route subcutaneous; conditions: in vivo, read-out: Drug uptake
[8] = species on record: Mus musculus; test: Reversal of SNC-80 induced hypothermia in ICR mouse assessed as rectal temperature; assay type: functional
[9] = system: Brain; test: Ratio of drug uptake from wild type P-gp mouse brain to P-gp deficient mouse brain compound treated subcutaneously; assay type: ADME; conditions: sc
[10] = Plasma concentration in mouse at 32 mg/kg, sc after 4 hrs; assay type: ADME, organism-based; set-up: dose 32 mg/kg, route subcutaneous
[11] = Ratio of plasma concentration in mouse over Ki for human delta opioid receptor; assay type: ADME, cell-free
[12] = Ratio of ED50 for Reversal of SNC-80 induced hypothermia in ICR mouse over Ki for human delta opioid receptor
[13] = Fraction unbound in mouse at 32 mg/kg, sc after 4 hrs; assay type: ADME, organism-based; set-up: dose 32 mg/kg, route subcutaneous; conditions: in vivo
[14] = system: Cerebrospinal fluid; test: Drug uptake in rat cerebrospinal fluid at 10 mg/kg, sc; assay type: ADME, organism-based; set-up: dose 10 mg/kg, route subcutaneous; conditions: in vivo, read-out: Drug uptake

Chain of Kappa-type opioid receptor (P41145 whole entry): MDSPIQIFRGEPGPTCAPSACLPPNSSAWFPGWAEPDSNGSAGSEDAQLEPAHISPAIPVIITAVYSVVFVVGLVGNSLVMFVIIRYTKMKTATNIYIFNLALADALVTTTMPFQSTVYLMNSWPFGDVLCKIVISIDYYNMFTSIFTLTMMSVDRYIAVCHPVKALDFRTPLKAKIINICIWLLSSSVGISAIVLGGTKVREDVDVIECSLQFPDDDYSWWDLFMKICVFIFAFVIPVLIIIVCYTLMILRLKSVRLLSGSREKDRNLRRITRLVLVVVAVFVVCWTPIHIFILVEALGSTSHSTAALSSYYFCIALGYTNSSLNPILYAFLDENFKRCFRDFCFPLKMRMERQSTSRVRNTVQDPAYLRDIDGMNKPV

Row | SMILES | pKi [1] | Ratio [2] | pKi [3] | CLint scaled [4] [mL/min/kg] | pKi [5] | pIC50 [6] | concentration [7] [nM] | ED50 [8] [mg/kg] | Ratio [9] | concentration at 4 h [10] [nM] | Ratio [11] | Ratio [12] | fraction unbound at 4 h [13] | concentration [14] [nM]
1 | CCCC(C)CN1CCC(c2cccc(O)c2)(c2ncc(C(=O)N(CC)CC)cn2)CC1 (stereo not drawn) | < 6.05 | 13 | < 6.05 | 40 | 8.22 | 7.68 |  |  |  |  |  |  |  | 
2 | CCC[C@@H](C)CN1CCC(c2cccc(O)c2)(c2ncc(C(=O)N(CC)CC)cn2)CC1 | 6.85 | 13 | 6.08 | 48 | 8.70 | 7.46 | 300 | 3 | 6.5 | 7500 | 100 | 15 | 0.3 | 103
3 | CCCC(C)CN1CCC(c2cccc(C(N)=O)c2)(c2ncc(C(=O)N(CC)CC)cn2)CC1 (stereo not drawn) | 7.19 | 13 | < 6.05 | 13 | 8.70 | 7.46 |  |  |  |  |  |  |  | 
4 | CCCC(C)CN1CCC(c2ccc(C(=O)N(C)C)cc2)(c2cccc(O)c2)CC1 (stereo not drawn) |  |  | < 6.05 | 80 |  |  |  |  |  |  |  |  |  | 
